From patent US10745408B2, “Biologically active taxane analogs and methods of treatment by oral administration” (Tapestry Pharmaceuticals, Inc., priority 2007, dated 2020) come the findings set out here.

In one data set the test system is DU145. In words: MTS proliferation assay, prostate DU145. The note with it: Homo sapiens, DU-145. The data set is classed as cell-based. How it is done:
(§1) MTS Proliferation Assay (Promega)
(§2) Day 1: Cells were plated in appropriate growth medium at 5×10^3 per well in 100 ul in 96 well tissue culture plates, Falcon, one for each drug to be tested. Col 1 was blank; it contained no cells, just medium. The plates were incubated overnight at 37° C., 5% CO2 to allow attachment.
(§3) Day 2: Added 120 ul growth medium in wells of 96-well “dilution plates” (one for each drug) and let sit in 37° C. incubator for about 1 hr.
(§4) Thawed DMSO drug stocks (usually at 10 mM). Each drug was diluted 6 ul into a tube with 3 ml growth medium, to 20 μM.
(§5) Aspirated medium from col 12 of a dilution plate; added 200-300 ul of 20 uM drug to wells of col 12. Made serial dilution down this 96-well plate: for a […] dilution pattern, moved 60 ul from col 12 to col 11, mixed 4-5 times (using 8 place multi-pipettor), moved 60 ul to col 10, etc. stopping at col 3.
(§6) Moved 100 ul of medium+drug from dilution plate to a cell plate, i.e. col 1 from drug plate (blank=no cells) to col 1 of cell plate, etc. up to col 12. Col 2 contained cells with no drug. […]
(§7) Day 4 or 5: Terminated the assay 48 to 72 hrs after drug addition. […] When the color turned dark in control wells (col 2), and was still light in col 12, the absorbance at 490 nm was read on a plate reader; the results were used to calculate IC50.
A general note: Tetrazolium assays rely on reduction of a dye to a coloured formazan, in cell work by metabolically active cells.

Data set [1] in a line: Central nervous system (CNS) safety study in rats. Format: in vivo, male Sprague Dawley rats. The method, then: Toxicology. Central Nervous System (CNS) Safety Study in Rats:
This study was conducted at ClinTrials BioResearch (CTBR, Montreal, Quebec, Canada) as a GLP study.
All animals were observed twice daily for signs of ill health or reaction to treatment, except on day of arrival and necropsy. A Functional Observation Battery (FOB) assessment, along with grip strength, hind limb splay and body temperature measurements were performed for all animals once pre-dose and at approximately 15 minutes, 1 hour, 4 hours, 8 hours and 24 hours post-dose. After the last observation, all animals were euthanized without further examination.

The subject of the next data set is PC-3. The data set is described as follows: MTS proliferation assay, prostate PC-3. The data set is classed as cell-based. The note with it: Homo sapiens. How it is done:
as §1, §2, §3, §4, §5, §6, §7

Data set [2] in a line: Injection formulation administered IV and orally: mouse PK parameters. The note with it: for half-life: read-out: t ½ (converted). The data set is classed as in vivo.
The mark [3] stands for this setting: mouse, in vivo, Oral 10 mg/kg, injection formulation.

Read-outs that look alike come from different tables or passages of the source.

The IC50 is the concentration that gives 50% inhibition. High values mean weaker potency in that assay, low ones greater potency in that assay. As a reminder, the AUC(0-inf) is the area under the concentration-time curve extrapolated to infinity. Read a high AUC(0-inf) as more exposure. One may read the AUC(0-t) as the area under the concentration-time curve up to a stated or last time point. As a reminder, the Cmax is the peak of the concentration-time curve. For orientation: Tmax means the time from dosing to the highest level. In turn, `C=C[C@H]1O[C@H]2C[C@H]3OC[C@@]3(OC(C)=O)[C@H]3[C@H](OC(=O)c4ccccc4)[C@]4(C(C)(C)O)CC(OC(=O)[C@H](O)C(CC(C)C)NC(=O)OC(C)(C)C)C(C)=C4[C@H](OC(C)=O)[C@H](O1)[C@]23C` (stereo partly drawn) [S-(1)] yielded an IC50 with DU145 of 60 nM. Further, in data set [1] (single intravenous 6.25, 12.5 or 25 mg/kg), the “deaths or treatment-related clinical signs” value is listed as “no deaths or treatment-related clinical signs”. In addition, the “biological effect on central nervous system (FOB, grip strength, hind limb splay, body temperature)” value in data set [1] (single intravenous 6.25, 12.5 or 25 mg/kg, 15 minutes, 1, 4, 8 and 24 hours post-dose) is reported as “no biological effects”. Moreover, the “no adverse effect level” value in data set [1] (single intravenous injection) came to 25 mg/kg. Further, it took 0.03 nM to reach half-maximal inhibition with PC-3 (IC50). Further, the F in data set [2] (Oral 10 mg/kg vs IV 10 mg/kg) was 47%. Also, in data set [2] (mouse, in vivo, IV 10 mg/kg), the AUC(0-inf) was 7.74 µM·h, the AUC(0-t) was 6.3 µM·h, the clearance was 24.8 mL/min/kg and the half-life was 6.1 h. In addition, in data set [2] (mouse, in vivo, IV 10 mg/kg, read-out: Vdss), the Vd came out at 13.3 L/kg. Besides, in data set [2] (setting [3]), the AUC(0-inf) stood at 3.61 µM·h, the AUC(0-t) is 3.43 µM·h, the Cmax came out at 460 nM and the time of peak concentration (Tmax) amounted to 6 h. Besides, the half-life in data set [2] (setting [3]) was 5.1 h.
